How the values were obtained:
[1] = tested on: Dehalococcoides ethenogenes strain 195; test: Batch dechlorination, D. ethenogenes strain 195 culture; type: cell-based; settings: cultures supplied with VC or DCE
Text: Stock cultures. The Victoria mixed culture, containing strain VS, was maintained in a closed continuously stirred tank reactor (CSTR) as previously described. A VC enrichment of this culture, maintained over 5 years, was also used in these investigations. Liquid cultures of the three other cultures evaluated (Pinellas, KB-1/VC, and Dehalococcoides ethenogenes strain 195) were kept in anaerobic bottles, stored in an anaerobic chamber (10% H2, 10% CO2, 80% N2). The bottles were amended with TCE (1-3 μL neat liquid), VC (250 μL gas), and PCE (1-3 μL neat liquid) being added to each, respectively, approximately every two weeks.
Batch studies. For the experimental portion of this research, two studies were undertaken, one a comparative VC growth study, and the other a comparative growth and substrate utilization study with different chlorinated ethenes. These studies compared the dechlorination abilities of Dehalococcoides ethenogenes strain 195 and the Dehalococcoides-like microorganisms in the three mixed cultures (Victoria, KB-1/VC, and Pinellas).
For the first study, a VC enriched inoculum was first developed for each of the three mixed cultures. Here, bottles (120 mL) were filled with 60 mL of anaerobic media in an anaerobic chamber as previously described, and inoculated with 200 μL of each stock culture. Gaseous VC (99.5%) was added with a gas tight syringe (200 μL). […]

[2] = target: T1, TCE-reductive dehalogenase (TceA) (Dehalococcoides mccartyi, UniProt Q3ZAB8); settings: TceA of D. ethenogenes 195; cited from earlier work
T1 sequence (Q3ZAB8 43-554): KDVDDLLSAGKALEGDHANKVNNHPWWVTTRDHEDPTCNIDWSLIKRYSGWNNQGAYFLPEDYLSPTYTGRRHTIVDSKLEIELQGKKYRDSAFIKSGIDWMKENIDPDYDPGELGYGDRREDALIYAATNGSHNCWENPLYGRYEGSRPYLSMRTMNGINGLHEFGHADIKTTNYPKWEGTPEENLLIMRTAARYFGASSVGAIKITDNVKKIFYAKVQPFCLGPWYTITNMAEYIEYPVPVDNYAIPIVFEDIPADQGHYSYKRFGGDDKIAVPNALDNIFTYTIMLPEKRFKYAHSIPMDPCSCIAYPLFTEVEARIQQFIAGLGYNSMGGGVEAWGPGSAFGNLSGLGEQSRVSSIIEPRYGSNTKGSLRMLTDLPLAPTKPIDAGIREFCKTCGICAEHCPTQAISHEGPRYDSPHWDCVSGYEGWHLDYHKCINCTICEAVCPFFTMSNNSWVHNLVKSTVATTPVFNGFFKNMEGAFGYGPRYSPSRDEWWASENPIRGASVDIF

[3] = tested on: Victoria mixed culture, containing strain VS; settings: traditional method of cell counting; cited from earlier work
[4] = tested on: highly enriched culture of strain VS; settings: previously determined; cited from earlier work

C=CCl [VC, vinyl chloride]
dechlorination by D. ethenogenes strain 195 [1]: did not dechlorinate | VC-reduction rate relative to activity of TCE- and cDCE-reduction [2]: less than 1% | growth rate determined previously by cell counting [3]: 0.4 day⁻¹ | strain VS maximum VC utilization rate [4]: 7.8×10^−10 μmol Cl^− (cell·d)^−1
